Source: US6855710B2, “Substituted indolines with an inhibitory effect on various kinases and complexes of CDKs” (Boehringer Ingelheim Pharma KG, priority 1998, dated 2005)

| melting point | SMILES |
| --- | --- |
| 159 to 161 °C | CN(C)C(=O)CN(c1ccc(N/C(=C2\C(=O)Nc3ccc([N+](=O)[O-])cc32)c2ccccc2)cc1)S(=O)(=O)Cc1ccccc1 [Example 303, (Z)-3-{1-[4-(N-(dimethylaminocarbonylmethyl)-N-benzylsulphonyl-amino)-phenylamino]-1-phenyl-methylidene}-5-nitro-2-indolinone] |
| 235 to 237 °C | CCNCCc1ccc(N/C(=C2\C(=O)Nc3ccc([N+](=O)[O-])cc32)c2ccccc2)cc1 [Example 255, (Z)-3-{1-[4-(2-ethylamino-ethyl)-phenylamino]-1-phenyl-methylidene}-5-nitro-2-indolinone] |
| 224 to 226 °C | Cc1cccc(/C(Nc2ccc(CN(C)C)cc2)=C2/C(=O)Nc3ccccc32)c1 [Example 213, (Z)-3-[1-(4-dimethylaminomethyl-phenylamino)-1-(m-tolyl)-methylidene]-2-indolinone] |
| 178 to 180 °C | CCCS(=O)(=O)N(CC(=O)N(C)C)c1ccc(N/C(=C2\C(=O)Nc3ccccc32)c2ccccc2)cc1 [Example 305, (Z)-3-{1-[4-(N-(dimethylaminocarbonylmethyl)-N-propylsulphonyl-amino)-phenylamino]-1-phenyl-methylidene}-2-indolinone] |
| 161 °C | CN(C)CCN(c1cccc(N/C(=C2\C(=O)Nc3ccccc32)c2ccc(CN)cc2)c1)S(C)(=O)=O [Example 422, (Z)-3-{1-[3-(N-(2-dimethylaminoethyl)-N-methylsulphonyl-amino)-phenylamino]-1-(4-aminomethyl-phenyl)-methylidene}-2-indolinone] |
| 266 to 268 °C | O=C1Nc2ccc([N+](=O)[O-])cc2/C1=C(/Nc1ccc(CNc2ccccn2)cc1)c1ccccc1 [Example 279, (Z)-3-{1-[4-(pyridine-2-ylaminomethyl)-phenylamino]-1-phenyl-methylidene}-5-nitro-2-indolinone] |
| 167 °C | CS(=O)(=O)N(CC(N)=O)c1cccc(N/C(=C2\C(=O)Nc3ccccc32)c2ccc(CN)cc2)c1 [Example 416, (Z)-3-{1-[3-(N-aminocarbonylmethyl-N-methylsulphonyl-amino)-phenylamino]-1-(4-aminomethyl-phenyl)-methylidene}-2-indolinone] |
| 203 to 205 °C | CN(C)CCN(c1ccc(N/C(=C2\C(=O)Nc3ccccc32)c2ccc(CN)cc2)cc1)S(C)(=O)=O [Example 426, (Z)-3-{1-[4-(N-(2-dimethylaminoethyl)-N-methylsulphonyl-amino)-phenylamino]-1-(4-aminomethyl-phenyl)-methylidene}-2-indolinone] |
| 230 to 233 °C | COc1ccc(/C(Nc2ccc(CN3CCCCC3)cc2)=C2/C(=O)Nc3ccc([N+](=O)[O-])cc32)cc1 [Example 441, (Z)-3-[1-(4-piperidinomethyl-phenylamino)-1-(4-methoxyphenyl)-methylidene]-5-nitro-2-indolinone] |
| 195 to 197 °C | CN(CC(=O)N(C)c1ccc(N/C(=C2\C(=O)Nc3ccccc32)c2ccccc2)cc1)Cc1ccccc1 [Example 370, (Z)-3-{1-[4-(N—(N-benzyl-N-methyl-aminomethylcarbonyl)-N-methyl-amino)-phenylamino]-1-phenyl-methylidene}-2-indolinone] |
| 244 to 247 °C | CCOC(=O)CN(C(C)=O)c1ccc(N/C(=C2\C(=O)Nc3ccccc32)c2ccccc2)cc1 [Example 352, (Z)-3-{1-[4-(N-ethoxycarbonylmethyl-N-acetyl-amino)-phenylamino]-1-phenyl-methylidene}-2-indolinone] |
| 263 to 265 °C | CCC(=O)N(CCN(C)C)c1ccc(N/C(=C2\C(=O)Nc3ccc([N+](=O)[O-])cc32)c2ccccc2)cc1 [Example 329, (Z)-3-{1-[4-(N-(2-dimethylaminoethyl)-N-propionyl-amino)-phenylamino]-1-phenyl-methylidene}-5-nitro-2-indolinone] |
| 274 to 277 °C | CCC(=O)N(CC(=O)N(C)C)c1ccc(N/C(=C2\C(=O)Nc3ccccc32)c2ccccc2)cc1 [Example 359, (Z)-3-{1-[4-(N-dimethylaminocarbonylmethyl-N-propionyl-amino)-phenylamino]-1-phenyl-methylidene}-2-indolinone] |
| 223 to 226 °C | Cc1ccc(S(=O)(=O)N(CC(=O)N(C)C)c2ccc(N/C(=C3\C(=O)Nc4ccccc43)c3ccccc3)cc2)cc1 [Example 206, (Z)-3-{1-[4-(N-dimethylaminocarbonylmethyl-N-(p-tolylsulphonyl)-amino)-phenylamino]-1-phenyl-methylidene}-2-indolinone] |
| 258 to 260 °C | CN(C)CCNc1ccc(N/C(=C2\C(=O)Nc3ccccc32)c2ccccc2)cc1 [Example 338, (Z)-3-{1-[4-(2-dimethylamino-ethylamino)-phenylamino]-1-phenyl-methylidene}-2-indolinone] |
| 236 to 239 °C | CN(Cc1ccc(N/C(=C2\C(=O)Nc3ccc([N+](=O)[O-])cc32)c2ccccc2)cc1)c1ncccn1 [Example 272, (Z)-3-{1-[4-((N-methyl-N-pyrimidin-2-yl-amino)-methyl)-phenylamino]-1-phenyl-methylidene}-5-nitro-2-indolinone] |
| 246 to 249 °C | COCC(=O)N(CCN(C)C)c1ccc(N/C(=C2\C(=O)Nc3ccccc32)c2ccccc2)cc1 [Example 451, (Z)-3-[1-(4-(N-(2-dimethylaminoethyl)-N-methoxymethylcarbonyl-amino)-phenylamino)-1-phenyl-methylidene]-2-indolinone] |

The remaining lines, values behind:

| SMILES | melting point |
| --- | --- |
| CC1CCN(Cc2ccc(N/C(=C3\C(=O)Nc4ccc([N+](=O)[O-])cc43)c3ccccc3)cc2)CC1 [Example 169, (Z)-3-{1-[4-(4-methylpiperidinomethyl)-phenylamino]-1-phenyl-methylidene}-5-nitro-2-indolinone] | 161 °C |
| CN(C)Cc1ccc(N/C(=C2\C(=O)Nc3ccc([N+](=O)[O-])cc32)c2ccc([N+](=O)[O-])cc2)cc1 | 233 °C |
| CN(c1ccc(N/C(=C2\C(=O)Nc3ccc([N+](=O)[O-])cc32)c2ccccc2)cc1)S(C)(=O)=O [Example 197, (Z)-3-{1-[4-(N-methyl-N-methylsulphonyl-amino)-phenylamino]-1-phenyl-methylidene}-5-nitro-2-indolinone] | 306 to 308 °C |
| CN(C(=O)CN1CCN(Cc2ccccc2)CC1)c1ccc(N/C(=C2\C(=O)Nc3ccc([N+](=O)[O-])cc32)c2ccccc2)cc1 [Example 104, (Z)-3-{1-[4-(N-(4-benzylpiperazinomethylcarbonyl)-N-methyl-amino)-phenylamino]-1-phenyl-methylidene}-5-nitro-2-indolinone] | 201 to 203 °C |
| CCCNCc1ccc(N/C(=C2\C(=O)Nc3ccc([N+](=O)[O-])cc32)c2ccccc2)cc1 [Example 162, (Z)-3-[1-(4-propylaminomethyl-phenylamino)-1-phenyl-methylidene]-5-nitro-2-indolinone] | 201 to 202 °C |
| CC(C)(C)OC(=O)NCC(=O)NCc1cccc(N/C(=C2\C(=O)Nc3ccc([N+](=O)[O-])cc32)c2ccccc2)c1 [Example 136, (Z)-3-[1-(3-tert.butoxycarbonylaminomethylcarbonylaminomethyl-phenylamino)-1-phenyl-methylidene]-5-nitro-2-indolinone] | 228 °C |
| CN(C(=O)CCN)c1ccc(N/C(=C2\C(=O)Nc3ccccc32)c2ccccc2)cc1.Cl | 97 to 99 °C |
| Cl.NCC(=O)NCc1ccc(N/C(=C2\C(=O)Nc3ccccc32)c2ccccc2)cc1 | 190 to 195 °C |
| O=C(O)Cc1cccc(N/C(=C2\C(=O)Nc3ccccc32)c2ccccc2)c1 [Example 12, (Z)-3-[1-(3-carboxymethyl-phenylamino)-1-phenyl-methylidene]-2-indolinone] | 268 to 270 °C |
| C[C@@H](NC(=O)OC(C)(C)C)c1ccc(N/C(=C2\C(=O)Nc3ccc([N+](=O)[O-])cc32)c2ccccc2)cc1 [Example 125, (Z,R)-3-{1-[4-(1-tert.butoxycarbonylamino-ethyl)-phenylamino]-1-phenyl-methylidene}-5-nitro-2-indolinone] | 247 to 249 °C |
| CS(=O)(=O)NCc1ccc(N/C(=C2\C(=O)Nc3ccc([N+](=O)[O-])cc32)c2ccccc2)cc1 [Example 167, (Z)-3-[1-(4-methylsulphonylaminomethyl-phenylamino)-1-phenyl-methylidene]-5-nitro-2-indolinone] | 294 to 296 °C |
| CC(=O)NC(c1ccc(N/C(=C2\C(=O)Nc3ccc([N+](=O)[O-])cc32)c2ccccc2)cc1)N(C)C(=O)OC(C)(C)C (stereo not shown) [Example 145, (Z)-3-{1-[4-((N-tert.butoxycarbonyl-N-methyl-amino)-methylcarbonylaminomethyl)-phenylamino]-1-phenyl-methylidene}-5-nitro-2-indolinone] | 225 to 227 °C (dec.) |
| CCN(CCO)CCc1ccc(N/C(=C2\C(=O)Nc3ccc([N+](=O)[O-])cc32)c2ccccc2)cc1 [Example 131, (Z)-3-{1-[4-(2-(N-(2-hydroxyethyl)-N-ethyl-amino)-ethyl)-phenylamino]-1-phenyl-methylidene}-5-nitro-2-indolinone] | 165 to 166 °C |
| N=C(N)c1cccc(N/C(=C2\C(=O)Nc3ccccc32)c2ccccc2)c1 [Example 64, (Z)-3-[1-(3-amidinophenylamino)-1-phenyl-methylidene]-2-indolinone] | 235 to 237 °C |
| COc1ccc(N/C(=C2\C(=O)Nc3ccccc32)c2ccccc2)cc1 [Example 2, (Z)-3-[1-(4-methoxy-phenylamino)-1-phenyl-methylidene]-2-indolinone] | 267 to 270 °C |
| CCC(=O)Nc1ccc(N/C(=C2\C(=O)Nc3ccccc32)c2ccccc2)cc1 [Example 39, (Z)-3-[1-(4-propionylamino-phenylamino)-1-phenyl-methylidene]-2-indolinone] | 255 to 256 °C |
| O=C1Nc2ccc([N+](=O)[O-])cc2/C1=C(/Nc1ccc(CN2CCC(Cc3ccccc3)CC2)cc1)c1ccccc1 [Example 172, (Z)-3-{1-[4-(4-phenylmethyl-piperidinomethyl)-phenylamino]-1-phenyl-methylidene}-5-nitro-2-indolinone] | 252 °C |
